This is an account of results in ChEMBL document CHEMBL1128620, “Relationship between cytotoxicity and DNA-binding affinity of amidine derivatives of tetrahydroquino[4,3-b][1]benzazepines and tetrahydrobenzo[k]naphthyridines” (Bioorg Med Chem Lett, 1995).

Broadly, the IC50 is the concentration that inhibits the measured activity by half. Lower therefore signals inhibition by little substance. The term ΔTm denotes the shift of the melting midpoint relative to a reference.

The test system of one assay is CH1. In words: In vitro cytotoxicity against CH1 ovarian carcinoma cells. It is filed as functional, cell-based. Particulars: Homo sapiens.
The subject of a further assay is Nucleic Acid. In words: DNA binding affinity was evaluated as thermal denaturation using calf thymus DNA. It is filed as nucleic-acid assay. The settings on record: Bos taurus.
A further assay relates to SK-OV-3. In words: In vitro cytotoxicity against SKOV-3 ovarian carcinoma cells. Type of assay: functional, cell-based. The settings on record: Homo sapiens.

Take `CC1C[C@]2(C)C(NCCCCN)=Nc3ccccc3[C@@H]2N(C)c2ccccc21` (some centres undefined): the IC50 with CH1 and with SK-OV-3 was 1.6 µM in each case. The ΔTm with Nucleic Acid was found to be 0.58 °C.

Regarding `CNc1cccc2c1C(C)C[C@]1(C)C(NCCCO)=Nc3ccccc3[C@H]21` (some centres undefined), the IC50 was found to be 6 µM in the assay on CH1 and 12.5 µM with SK-OV-3. Also, in the assay on Nucleic Acid, the ΔTm is 0.35 °C.

On to `CCCNC1=Nc2ccccc2[C@@H]2c3cccc(NC)c3C(C)C[C@]12C` (some centres undefined), for which the results for the IC50 in the assay on CH1 and in the assay with SK-OV-3 were 9 µM and 12 µM, respectively. Besides, the ΔTm in the assay on Nucleic Acid was determined as 0.29 °C.

Turning to `CC1C[C@]2(C)C(NCCCO)=Nc3ccccc3[C@@H]2N(C)c2ccccc21` (some centres undefined), the IC50 in the assay with CH1 worked out at 14 µM; in the assay on SK-OV-3 it was 32.5 µM. Moreover, the shift in melting temperature (ΔTm) with Nucleic Acid was 0.24 °C.

Regarding `CCCNC1=Nc2ccccc2[C@@H]2N(C)c3ccccc3C(C)C[C@]12C` (some centres undefined), the results for the IC50 in the assay on CH1 and with SK-OV-3 were 10.5 µM and 1.4 µM, respectively. In the assay with Nucleic Acid, the ΔTm turned out to be 0.17 °C.

Consider `CNc1cccc2c1C(C)C[C@]1(C)C(NCCCCN)=Nc3ccccc3[C@H]21` (some centres undefined), for which the IC50 in the assay with CH1 came out at 3.5 µM; in the assay with SK-OV-3, 2.25 µM. Moreover, the ΔTm with Nucleic Acid came to 1.14 °C.

In the case of `CNc1cccc2c1C(C)C[C@]1(C)C(NCCCN)=Nc3ccccc3[C@H]21` (some centres undefined), the values for the IC50 in the assay with CH1 and in the assay with SK-OV-3 were 2 µM and 3.1 µM, respectively. Besides, the ΔTm in the assay on Nucleic Acid was found to be 0.88 °C.

On to `CC1C[C@]2(C)C(NCCCN)=Nc3ccccc3[C@@H]2N(C)c2ccccc21` (some centres undefined), for which the IC50 in the assay with CH1 came to 0.5 µM; with SK-OV-3, 3.3 µM. Besides, the ΔTm in the assay on Nucleic Acid worked out at 0.46 °C.
